This test relates to St. viridans group (SV). Briefly: MIC of clinical ocular isolates (Example 1). Format: cell-based. The following applies: Streptococcus viridans.

The term MIC50 denotes the lowest concentration that inhibits either 50% of growth or 50% of the strains tested, depending on the study. Usually MIC90 stands for an inhibitory concentration at the 90% level, which refers to growth in some studies and to a panel of isolates in others. In the case of `N=C(N)NCCCCC(=O)Nc1cc(C(F)(F)F)cc(NC(=O)c2cc(C(=O)Nc3cc(C(F)(F)F)cc(NC(=O)CCCCNC(=N)N)c3SCCN)ncn2)c1SCCN` [Oligomer 2], the MIC50 worked out at 4 µg/mL and the MIC90 turned out to be 32 µg/mL.

The record behind these values is US20130065818A1, “Arylamide Compounds And Compositions And Uses Thereof” (POLYMEDIX, priority 2006, published 2013).
